IC50 data for 30 compounds are collected here from US8304422B2, “Compositions and methods for inhibition of the JAK pathway” (Rigel Pharmaceuticals, Inc., priority 2007, dated 2012).

One may read the IC50 as the concentration that gives 50% inhibition. Higher therefore signals a need for much substance.

The assay relates to BaF3 V617F cells; UKE-1. The assay is described as follows: Proliferation Assay (Cell Titer-Glo; Example 7). The assay is classed as cell-based. Conditions: proliferation 72 hours, inhibit JAK2 activity, cell line (BaF3 V617F or UKE-1) not stated. Here is the method:
BaF3 V617F cells are maintained and plated in RPMI with 10% FBS. Plating density for these cells is 1×10^5 cells/mL.
UKE-1 are maintained and plated in Iscove's DMEM containing 10% FBS, 10% equine serum, 1% penicillin/streptomycin and 1 uM hydrocortisone. Plating density for these cells is 0.4×10^6 cells/mL
The cells were resuspended in a corresponding medium at a required cell density (see above). 100μ of cell suspension was added to each well of a flat bottom 96 well white plate. The compound was serially diluted in DMSO from 5 mM in 3-fold dilutions, and then diluted 1:250 in the RPMI 1640 medium containing 5% FBS and pen/strep. 100 μL of resulting 2× compound solution was added per well in duplicate and the cells were allowed to proliferate for 72 hours at 37° C.
Proliferation was measured using Cell Titer-Glo. The substrate was thawed and allowed to come to room temperature. After removal of top 100 μL of medium from each well, 100 μL of the premixed Cell Titer-Glo reagent was added to each well. The plates were mixed on an orbital shaker for three minutes to induce lysis and incubated at ambient temperature for an additional five minutes to allow the signal to equilibrate. The Luminescence was read on the Wallac Plate Reader.
The results of the ability of the compounds of the invention to inhibit JAK2 activity, when tested in the above assay, are shown in the following Table XI wherein the level of activity (i.e., the IC50) for each compound is indicated in Table XI. The compound numbers in Table XI refers to the compounds disclosed herein as being prepared by the methods disclosed herein: […]
A general note: ATP-based viability assays read luminescence as a measure of living cells.
`CCNS(=O)(=O)NCc1ccc(Nc2nc(Nc3cc(C)c(OC)c(C)c3)ncc2C)cc1` [II-116, N2-(3,5-Dimethyl-4-methoxyphenyl)-N4-[(4-(ethylamino)sulfonylamino)methylphenyl]-5-methyl-2,4-pyrimidinediamine] returned an IC50 of 73.7 nM. Take `COc1cc(Nc2ncc(Cl)c(Nc3ccc(CNS(=O)(=O)C4CC4)cc3)n2)cc(OC)c1OC` [II-186, 5-Chloro-N4-[4-(N-cyclopropylsulfonylaminomethyl)phenyl]-N2-[3,4,5-trimethoxyphenyl]-2,4-pyrimidinediamine]: the half-inhibitory concentration (IC50) came out at 128 nM.

For `COc1cc(Nc2ncc(Cl)c(Nc3ccc(CNS(=O)(=O)N(C)C)cc3)n2)cc(C)c1OC` [II-91, 5-Chloro-N2-(3,4-dimethoxy-5-methylphenyl)-N4-[(4-(dimethylamino)sulfonylamino)methylphenyl]-2,4-pyrimidinediamine], the IC50 was 142 nM. The figure for `COc1cc(Nc2ncc(F)c(Nc3ccc(CNS(=O)(=O)C4CC4)cc3)n2)cc(Cl)c1OC` [II-196, 5-Fluoro-N4-[4-(N-cyclopropylsulfonylamino)methylphenyl]-N2-[3,4-dimethoxy-5-chlorophenyl]-2,4-pyrimidinediamine] is 597 nM; for `COc1c(Cl)cc(Nc2ncc(Cl)c(Nc3ccc(CNS(=O)(=O)N(C)C)cc3)n2)cc1Cl` [II-94, 5-Chloro-N2-[3,5-dichloro-4-methoxyphenyl]-N4-[(4-(dimethylamino)sulfonylamino)methylphenyl]-2,4-pyrimidinediamine] it is 13500 nM. The same measure for `CCNS(=O)(=O)NCc1ccc(Nc2nc(Nc3ccc(C4CCN(C)CC4)cc3)ncc2C)cc1` [II-124, N4-[(4-(Ethylamino)sulfonylamino)methylphenyl]-5-methyl-N2-[4-(1-methyl-4-piperidinyl)pheny]-2,4-pyrimidinediamine]: 1160 nM; for `O=S(=O)(NCc1ccc(Nc2nc(Nc3ccc(-c4cccnc4)cc3)ncc2Cl)cc1)C1CC1` [II-193, 5-Chloro-N4-[4-(N-cyclopropylsulfonylamino)methylphenyl]-N2-[4-(3-pyridinyl)phenyl]-2,4-pyrimidinediamine]: 1300 nM; for `CCNS(=O)(=O)NCc1ccc(Nc2nc(Nc3cc(Cl)c(OC)c(OC)c3)ncc2C)cc1` [II-121, N2-(3-Chloro-4,5-dimethoxyphenyl)-N4-[(4-(ethylamino)sulfonylamino)methylphenyl]-5-methyl-2,4-pyrimidinediamine]: 363 nM. `CCS(=O)(=O)N1CCc2c(cccc2Nc2nc(Nc3cc(C)c(OC)c(C)c3)ncc2Cl)C1` [VI-4, 5-Chloro-N2-(3,5-dimethyl-4-methoxyphenyl)N4-[1,2,3,4-tetrahydro-2-(ethylsulfonyl)-5-isoquinolinyl]-2,4-pyrimidinediamine] returned an IC50 of 1210 nM. The figure for `COc1c(C)cc(Nc2ncc(Cl)c(Nc3ccc(CNS(=O)(=O)NC4CC4)cc3)n2)cc1C` [II-154, 5-Chloro-N4-[4-((N-cyclopropylamino)sulfonylamino)methylphenyl]-N2-(3,5-dimethyl-4-methoxyphenyl)-2,4-pyrimidinediamine] is 42.9 nM; for `Cc1cc(CNS(=O)(=O)C2CC2)cc(Nc2nc(Nc3ccc(N4CCN(C5CC6CCC5C6)CC4)cc3)ncc2Cl)c1` (stereo not drawn) [II-76, N-(3-(2-(4-(4-(bicyclo[2.2.1]heptan-2-yl)piperazin-1-yl)phenylamino)-5-chloropyrimidin-4-ylamino)-5-methylbenzyl)cyclopropanesulfonamide] it is 1310 nM. The figure for `COc1cc(Nc2ncc(C)c(Nc3ccc4c(c3)[C@H](NS(C)(=O)=O)CC4)n2)cc(OC)c1OC` [V-9] is 2200 nM. The same measure for “5-Chloro-N4-[4-(N-cyclopropylsulfonylamino)methylphenyl]-N2-[2,4-dimethyl-5-chlorophenyl]-2,4-pyrimidinediamine [II-213]”: 2490 nM. Regarding `Cc1cnc(Nc2cncc(C)c2N2CCN(C)CC2)nc1Nc1ccc2c(c1)S(=O)(=O)NCC2` [VII-7, 5-Methyl-N4-[3,4-dihydro-1,1-dioxide-2H-1,2-benzothiazin-7-yl]-N2-[5-methyl-4-(N-methylpiperizin-4-yl)pyridine-3-yl]-2,4-pyrimidinediamine], half-maximal inhibition (IC50) required 5390 nM. The figure for “5-Chloro-N4-[4-(N-cyclopropylsulfonylamino)methylphenyl]-N2-[4-(N-methylpiperizin-4-yl)phenyl]-2,4-pyrimidinediamine [II-188]” is 224 nM. The same measure for “5-Chloro-N4-[4-[N-(Cyclopropylsulfonyl)-N′-((3-ethoxycarbonyl)propion-1-yl)amino]methylphenyl]-N2-(3,5-dimethyl-4-methoxyphenyl)-2,4-pyrimidinediamine [II-140]”: 251 nM; for `COc1cc(Nc2ncc(Cl)c(Nc3ccc(CNS(=O)(=O)N(C)C)cc3)n2)cc(Cl)c1OC` [II-92, 5-Chloro-N2-(3-chloro-4,5-dimethoxyphenyl)-N4-[(4-(dimethylamino)sulfonylamino)methylphenyl]-2,4-pyrimidinediamine]: 558 nM; for `COc1cc(Nc2ncc(C)c(Nc3ccc(CNS(=O)(=O)NC4CC4)cc3)n2)cc(C)c1OC` [II-166, N4-[4-((N-Cyclopropylamino)sulfonylamino)methylphenyl]-N2-(3,4-dimethoxy-5-methylphenyl)-5-methyl-2,4-pyrimidinediamine]: 247 nM. The same measure for `COc1cc(C)c(Nc2ncc(Cl)c(Nc3ccc(CCNS(=O)(=O)C4CC4)cc3)n2)c(C)c1` [II-46, 5-Chloro-N4[4-(N-cyclopropylsulfonylamino)ethylphenyl]-N2-[4-(2,6-dimethyl-methoxy)phenyl]-2,4-pyrimidinediamine]: 592 nM; for `CN1CCN(c2ccc(Nc3ncc(Cl)c(Nc4ccc(CNS(=O)(=O)N(C)C)cc4)n3)cc2)CC1` [II-96, 5-Chloro-N4-[(4-(dimethylamino)sulfonylamino)methylphenyl]-N2-[4-(4-methyl-1-piperazinyl)phenyl]-2,4-pyrimidinediamine]: 91 nM; for `Cc1cnc(Nc2ccc(-c3ccccc3)cc2)nc1Nc1ccc(CCNS(=O)(=O)C2CC2)cc1` [II-75]: 10400 nM. Regarding `CCOc1c(C)cc(Nc2ncc(Cl)c(Nc3ccc(CNS(N)(=O)=O)cc3)n2)cc1C` [II-147, N4-[4-(Aminosulfonylamino)methylphenyl]-5-chloro-N2-(3,5-Dimethyl-4-ethoxyphenyl)-2,4-pyrimidinediamine], half-maximal inhibition (IC50) required 142 nM.

“5-Chloro-N4-[3,4-dihydro-1,1-dioxide-2H-1,2-benzothiazin-7-yl]-N2-[4-(N-methylpiperizin-4-yl)phenyl]-2,4-pyrimidinediamine [VII-2]” came in with an IC50 of 371 nM.

For `CCc1cnc(Nc2ccc(N3CCN(CC)CC3)cc2)nc1Nc1ccc(CNS(=O)(=O)C2CC2)cc1` [II-89, N4-[4-(N-Cyclopropylsulfonylamino)methylphenyl]-5-ethyl-N2-[4-(4-ethyl-1-piperazinyl)phenyl]-2,4-pyrimidinediamine], the IC50 stood at 674 nM. In turn, `COc1cc(Nc2ncc(C)c(Nc3ccc(CNS(=O)(=O)N(C)C)cc3)n2)cc(C)c1OC` [II-100, 4-[(4-(Dimethylamino)sulfonylamino)methylphenyl]-N2-(3,4-dimethoxy-5-methylphenyl)-5-methyl-2,4-pyrimidinediamine] came in with an IC50 of 179 nM. The same measure for `Cc1cc(Nc2ncc(Cl)c(Nc3cccc(S(=O)(=O)NC(C)(C)C)c3)n2)ccc1N1C[C@@H]2C[C@H]1CN2C` [I-22, 5-Chloro-N4-[(3-(1,1-dimethylethylamino)sulfonyl)phenyl]-N2-[3-methyl-4-[(1S,4S)-5-methyl-2,5-diazabicyclo[2.2.1]hept-2-yl]phenyl]-2,4-pyrimidinediamine]: 549 nM. The same measure for `CN1CCN(c2ccc(Nc3ncc(Cl)c(Nc4ccc(CCNS(=O)(=O)C5CC5)cc4)n3)cn2)CC1` [II-53, 5-Chloro-N4[4-(N-cyclopropylsulfonylamino)ethylphenyl]-N2-[4-(4-methylpiperazino)pyrido]-2,4-pyrimidinediamine]: 1980 nM. The same measure for `O=S(=O)(NCc1ccc(Nc2nc(Nc3cc(C4CC4)n[nH]3)ncc2Cl)cc1)C1CC1` [VIII-12, 5-Chloro-N4-[4-(N-cyclopropylsulfonylamino)methylphenyl]-N2-[5-cyclopropylpyrazol-3-yl)-2,4-pyrimidinediamine]: 879 nM. With `O=S(=O)(NCc1ccc(Nc2nc(Nc3ccc(N4CCN(C5CC6CCC5C6)CC4)cc3)ncc2Cl)cc1)C1CC1` (stereo not drawn) [II-61, N-(4-(2-(4-(4-(bicyclo[2.2.1]heptan-2-yl)piperazin-1-yl)phenylamino)-5-chloropyrimidin-4-ylamino)benzyl)cyclopropanesulfonamide], the midpoint of inhibition, the IC50, lay at 5970 nM. The same measure for `CCNS(=O)(=O)NCc1ccc(Nc2nc(Nc3ccc(N4CCN(C)CC4)c(C)c3)ncc2Cl)c(C)c1` [II-145, 5-Chloro-N4-[2-methyl-4-(ethylaminosulfonylamino)methylphenyl]-N2-[3-methyl-4-(4-methyl-1-piperazinyl)phenyl]-2,4-pyrimidinediamine]: 3980 nM.
